{"source": "paper PMC7615677", "about": "(Science translational medicine, 2023)", "key": {"[1]": {"experiment": "In vitro cytotoxicity assay", "format": "cell-based", "settings": "mouse, 3T3 mouse embryo fibroblasts"}, "[2]": {"experiment": "pKa and Log D7.4 determination", "format": "physicochemical", "procedure": "The ionization constant (pKa), octanol-pH 7.4 buffer partition coefficient (Log D7.4), solubility in biorelevant buffers (FaSSIF-V2, FeSSIF-V2, FaSSGF and pH 7.4 phosphate buffered saline (PBS)) and Caco-2 permeability were determined according to previously published methods ([10])."}, "NaV1.5": {"molecular_target": "NaV1.5 (Homo sapiens, UniProt Q14524)", "sequence (Q14524 whole entry)": "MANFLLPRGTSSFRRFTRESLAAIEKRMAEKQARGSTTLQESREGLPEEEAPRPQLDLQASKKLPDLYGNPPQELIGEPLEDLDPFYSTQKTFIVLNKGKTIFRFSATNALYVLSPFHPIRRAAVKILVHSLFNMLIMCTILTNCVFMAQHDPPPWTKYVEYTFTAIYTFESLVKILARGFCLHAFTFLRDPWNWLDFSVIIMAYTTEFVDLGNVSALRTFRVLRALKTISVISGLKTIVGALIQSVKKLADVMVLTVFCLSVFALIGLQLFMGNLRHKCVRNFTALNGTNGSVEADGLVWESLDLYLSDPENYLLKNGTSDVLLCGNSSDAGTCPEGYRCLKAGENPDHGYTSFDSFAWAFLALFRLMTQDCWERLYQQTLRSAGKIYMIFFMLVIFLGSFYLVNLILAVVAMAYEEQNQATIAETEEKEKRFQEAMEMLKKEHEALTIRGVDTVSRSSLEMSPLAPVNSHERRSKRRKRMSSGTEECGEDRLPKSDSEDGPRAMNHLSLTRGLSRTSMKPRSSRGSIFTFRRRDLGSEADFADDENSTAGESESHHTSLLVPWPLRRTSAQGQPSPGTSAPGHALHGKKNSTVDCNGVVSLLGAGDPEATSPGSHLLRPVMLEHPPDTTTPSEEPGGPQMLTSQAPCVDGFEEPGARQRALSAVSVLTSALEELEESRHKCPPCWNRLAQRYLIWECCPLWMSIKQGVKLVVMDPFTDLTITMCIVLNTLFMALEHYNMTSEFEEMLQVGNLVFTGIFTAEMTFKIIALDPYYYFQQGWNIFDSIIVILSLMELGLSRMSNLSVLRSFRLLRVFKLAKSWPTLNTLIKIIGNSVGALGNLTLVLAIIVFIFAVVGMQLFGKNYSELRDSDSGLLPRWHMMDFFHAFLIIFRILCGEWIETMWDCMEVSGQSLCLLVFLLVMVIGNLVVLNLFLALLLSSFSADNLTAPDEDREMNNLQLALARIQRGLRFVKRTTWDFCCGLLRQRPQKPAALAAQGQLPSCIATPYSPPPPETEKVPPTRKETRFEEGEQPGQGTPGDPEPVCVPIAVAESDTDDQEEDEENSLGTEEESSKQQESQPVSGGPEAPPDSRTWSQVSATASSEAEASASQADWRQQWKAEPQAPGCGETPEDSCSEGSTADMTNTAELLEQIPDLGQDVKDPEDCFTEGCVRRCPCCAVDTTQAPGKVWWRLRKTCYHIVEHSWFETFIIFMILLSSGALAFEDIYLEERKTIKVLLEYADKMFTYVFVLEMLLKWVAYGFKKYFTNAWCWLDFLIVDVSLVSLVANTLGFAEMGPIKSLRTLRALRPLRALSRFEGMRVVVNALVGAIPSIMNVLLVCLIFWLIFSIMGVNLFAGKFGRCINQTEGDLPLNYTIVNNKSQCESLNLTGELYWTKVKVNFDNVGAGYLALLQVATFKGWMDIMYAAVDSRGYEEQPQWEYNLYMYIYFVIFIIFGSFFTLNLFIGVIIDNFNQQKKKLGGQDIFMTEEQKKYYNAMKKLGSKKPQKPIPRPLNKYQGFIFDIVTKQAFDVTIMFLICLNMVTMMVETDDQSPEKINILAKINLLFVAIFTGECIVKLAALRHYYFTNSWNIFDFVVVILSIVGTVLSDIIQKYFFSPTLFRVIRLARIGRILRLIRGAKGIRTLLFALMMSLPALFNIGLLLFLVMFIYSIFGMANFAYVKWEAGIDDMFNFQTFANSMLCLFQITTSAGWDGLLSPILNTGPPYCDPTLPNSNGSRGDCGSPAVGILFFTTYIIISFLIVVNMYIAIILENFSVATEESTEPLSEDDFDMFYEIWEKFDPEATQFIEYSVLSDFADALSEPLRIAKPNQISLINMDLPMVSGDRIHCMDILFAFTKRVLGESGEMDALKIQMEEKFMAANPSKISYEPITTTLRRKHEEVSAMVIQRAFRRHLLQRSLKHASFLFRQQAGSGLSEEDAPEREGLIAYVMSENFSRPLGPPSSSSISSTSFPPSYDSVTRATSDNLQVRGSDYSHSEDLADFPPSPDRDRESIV", "experiment": "Qube NaV1.5"}, "[3]": {"experiment": "In vitro metabolism, cryopreserved hepatocytes", "format": "in vitro ADME, human", "procedure": "(§1) Cell viability was determined using trypan blue exclusion. The incubation was performed on a plate shaker (Heidolph Titrimax 100, 900 rpm) placed in a humidified incubator (37°C, 7.5% CO2) for 240 min. The reaction was initiated with the addition of compound with samples taken periodically and quenched with the addition of acetonitrile containing internal standards (metolazone and diazepam). Quenched samples were maintained on ice for approximately 20-30 min, centrifuged (for 5 min) and the supernatant analyzed by LC-MS.\n(§2) In vitro intrinsic clearance (CLint, μL/min/mg or μL/min/10^6 cells) values were calculated from the apparent first order degradation rate constant divided by the microsome concentration or the hepatocyte cell number (10^6 viable cells/mL). In vitro CLint values were then divided by the fraction unbound in the in vitro test system (to give CLint,u) and scaled to in vivo values (mL/min/kg) using published physiological scaling factors ([28]). Blood clearance in each species was then calculated using the well-stirred model of hepatic extraction (equation 2) where Q is the hepatic blood flow and fu,blood is calculated from fu,plasma/B:P: [2] PredictedCLblood=Q x fu,blood x CLint,u/Q+fu,blood x CLint,u\n(§3) Blood clearance values were converted to plasma clearance by multiplying by the B:P."}, "THP-1": {"system": "THP-1", "experiment": "MitoXpress oxygen consumption assay", "format": "cell-based"}, "[4]": {"molecular_target": "T1, human cytochrome bc1 complex (Homo sapiens, UniProt P00156)", "T1 construct": "Preparation of mitochondria from a human cell line (THP-1); endogenous in cells; host or cells: THP-1 (human) mitochondria", "experiment": "Human complex III inhibition assay", "format": "biochemical", "procedure": "Preparation of mitochondria from a human cell line (THP-1) was performed following published procedure ([21]). The protocol for the assay has been described in ([22])."}, "[5]": {"experiment": "Reaction phenotyping with chemical CYP inhibitors", "format": "in vitro ADME", "settings": "human liver microsomes", "procedure": "Other aspects of the incubation and analysis were as described above."}, "[6]": {"experiment": "In vitro metabolism, cryopreserved hepatocytes", "format": "in vitro ADME, dog", "procedure": "as §1, §2, §3"}, "OAT3": {"molecular_target": "T2, OAT3 (Homo sapiens, UniProt Q8TCC7)", "T2 construct": "Eurofins", "experiment": "Drug transporter inhibition panel", "format": "in vitro ADME", "settings": "1 and 10 μM", "source_text": "(§4) Listed values represent the percent change relative to the DMSO control activity. When an IC50 had to be determined, eight different concentrations were included. All values are the mean of assay readout duplicates."}, "OCT2": {"molecular_target": "T3, OCT2 (Homo sapiens, UniProt O15244)", "T3 construct": "Eurofins", "T3 sequence (O15244 whole entry)": "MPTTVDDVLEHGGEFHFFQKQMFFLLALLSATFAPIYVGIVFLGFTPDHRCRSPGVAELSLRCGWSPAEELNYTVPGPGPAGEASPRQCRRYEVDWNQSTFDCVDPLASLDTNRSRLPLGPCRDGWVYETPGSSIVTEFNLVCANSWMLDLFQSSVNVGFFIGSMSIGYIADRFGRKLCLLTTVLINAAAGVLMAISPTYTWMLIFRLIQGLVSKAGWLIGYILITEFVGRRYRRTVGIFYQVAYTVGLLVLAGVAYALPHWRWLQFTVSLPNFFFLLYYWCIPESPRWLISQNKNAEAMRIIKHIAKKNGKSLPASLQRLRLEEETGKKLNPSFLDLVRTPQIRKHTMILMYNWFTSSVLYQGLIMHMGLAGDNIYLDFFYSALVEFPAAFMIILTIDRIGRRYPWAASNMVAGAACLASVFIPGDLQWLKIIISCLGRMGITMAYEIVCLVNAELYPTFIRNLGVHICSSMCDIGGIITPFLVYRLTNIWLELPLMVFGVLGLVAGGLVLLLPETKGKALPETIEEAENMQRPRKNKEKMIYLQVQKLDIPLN", "experiment": "Drug transporter inhibition panel", "format": "in vitro ADME", "settings": "1 and 10 μM", "source_text": "as §4"}, "BSEP": {"molecular_target": "BSEP (Homo sapiens, UniProt O95342)", "sequence (O95342 whole entry, species assumed)": "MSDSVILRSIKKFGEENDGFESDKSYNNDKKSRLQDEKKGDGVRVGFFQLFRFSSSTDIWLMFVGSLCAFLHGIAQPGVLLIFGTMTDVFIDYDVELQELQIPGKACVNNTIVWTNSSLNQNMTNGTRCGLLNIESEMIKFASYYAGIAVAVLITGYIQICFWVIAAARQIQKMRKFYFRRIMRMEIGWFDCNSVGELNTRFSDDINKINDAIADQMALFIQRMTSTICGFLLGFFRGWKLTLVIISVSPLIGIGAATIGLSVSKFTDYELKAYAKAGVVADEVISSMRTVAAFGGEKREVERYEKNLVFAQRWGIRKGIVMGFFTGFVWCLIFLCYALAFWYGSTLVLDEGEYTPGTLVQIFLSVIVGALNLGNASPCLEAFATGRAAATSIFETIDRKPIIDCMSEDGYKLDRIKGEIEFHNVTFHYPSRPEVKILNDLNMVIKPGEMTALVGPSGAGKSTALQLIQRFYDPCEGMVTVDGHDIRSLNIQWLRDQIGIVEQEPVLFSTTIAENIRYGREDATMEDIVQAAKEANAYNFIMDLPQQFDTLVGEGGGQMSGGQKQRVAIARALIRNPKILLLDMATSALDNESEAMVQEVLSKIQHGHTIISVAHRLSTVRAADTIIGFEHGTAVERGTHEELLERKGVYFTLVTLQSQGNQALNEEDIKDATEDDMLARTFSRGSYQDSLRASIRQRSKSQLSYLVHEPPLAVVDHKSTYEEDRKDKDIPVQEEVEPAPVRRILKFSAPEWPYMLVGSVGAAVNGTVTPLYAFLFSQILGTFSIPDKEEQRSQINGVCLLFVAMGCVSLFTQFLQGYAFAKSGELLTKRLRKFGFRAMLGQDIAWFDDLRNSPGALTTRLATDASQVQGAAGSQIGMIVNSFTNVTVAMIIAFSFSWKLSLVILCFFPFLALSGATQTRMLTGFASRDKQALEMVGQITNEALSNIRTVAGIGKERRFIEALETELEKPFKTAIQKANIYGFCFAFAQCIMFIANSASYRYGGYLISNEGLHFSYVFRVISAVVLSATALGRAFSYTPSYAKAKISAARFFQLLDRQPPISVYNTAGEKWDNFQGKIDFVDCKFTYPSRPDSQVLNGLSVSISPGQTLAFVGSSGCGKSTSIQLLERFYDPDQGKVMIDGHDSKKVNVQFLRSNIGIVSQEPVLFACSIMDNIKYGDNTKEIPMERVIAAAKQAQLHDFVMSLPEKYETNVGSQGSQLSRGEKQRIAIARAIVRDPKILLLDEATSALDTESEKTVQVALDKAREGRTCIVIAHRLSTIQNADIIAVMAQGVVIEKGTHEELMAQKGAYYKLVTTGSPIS", "experiment": "Drug transporter inhibition panel", "format": "in vitro ADME", "settings": "1 and 10 μM", "source_text": "as §4"}, "OATP1B1": {"molecular_target": "T4, OATP1B1 (Homo sapiens, UniProt Q9Y6L6)", "T4 construct": "Eurofins", "experiment": "Drug transporter inhibition panel", "format": "in vitro ADME", "source_text": "as §4"}, "MATE2-K": {"molecular_target": "T5, MATE2-K (Homo sapiens, UniProt Q86VL8)", "T5 construct": "Eurofins", "experiment": "Drug transporter inhibition panel", "format": "in vitro ADME", "source_text": "as §4"}, "OCT1": {"molecular_target": "T6, OCT1 (Homo sapiens, UniProt O15245)", "T6 construct": "Eurofins", "experiment": "Drug transporter inhibition panel", "format": "in vitro ADME", "settings": "1 and 10 μM", "source_text": "as §4"}, "OAT1": {"molecular_target": "T7, OAT1 (Homo sapiens, UniProt Q4U2R8)", "T7 construct": "Eurofins", "T7 sequence (Q4U2R8 whole entry)": "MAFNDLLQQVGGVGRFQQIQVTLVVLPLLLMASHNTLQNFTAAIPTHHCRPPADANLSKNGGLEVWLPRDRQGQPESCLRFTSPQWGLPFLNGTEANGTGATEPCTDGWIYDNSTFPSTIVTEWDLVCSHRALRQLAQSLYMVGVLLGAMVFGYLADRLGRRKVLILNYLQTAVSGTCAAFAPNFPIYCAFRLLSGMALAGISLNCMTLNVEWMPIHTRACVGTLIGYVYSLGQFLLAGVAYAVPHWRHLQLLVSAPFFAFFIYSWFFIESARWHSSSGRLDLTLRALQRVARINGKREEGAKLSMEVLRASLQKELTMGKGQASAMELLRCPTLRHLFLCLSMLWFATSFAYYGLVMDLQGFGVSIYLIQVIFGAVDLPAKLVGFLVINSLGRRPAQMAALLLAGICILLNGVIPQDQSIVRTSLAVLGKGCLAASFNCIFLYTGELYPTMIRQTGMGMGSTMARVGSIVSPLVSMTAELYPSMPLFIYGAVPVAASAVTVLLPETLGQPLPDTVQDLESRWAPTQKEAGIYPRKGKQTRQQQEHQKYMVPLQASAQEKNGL", "experiment": "Drug transporter inhibition panel", "format": "in vitro ADME", "settings": "1 and 10 μM", "source_text": "as §4"}, "BCRP": {"molecular_target": "BCRP (Homo sapiens, UniProt Q9UNQ0)", "sequence (Q9UNQ0 whole entry, species assumed)": "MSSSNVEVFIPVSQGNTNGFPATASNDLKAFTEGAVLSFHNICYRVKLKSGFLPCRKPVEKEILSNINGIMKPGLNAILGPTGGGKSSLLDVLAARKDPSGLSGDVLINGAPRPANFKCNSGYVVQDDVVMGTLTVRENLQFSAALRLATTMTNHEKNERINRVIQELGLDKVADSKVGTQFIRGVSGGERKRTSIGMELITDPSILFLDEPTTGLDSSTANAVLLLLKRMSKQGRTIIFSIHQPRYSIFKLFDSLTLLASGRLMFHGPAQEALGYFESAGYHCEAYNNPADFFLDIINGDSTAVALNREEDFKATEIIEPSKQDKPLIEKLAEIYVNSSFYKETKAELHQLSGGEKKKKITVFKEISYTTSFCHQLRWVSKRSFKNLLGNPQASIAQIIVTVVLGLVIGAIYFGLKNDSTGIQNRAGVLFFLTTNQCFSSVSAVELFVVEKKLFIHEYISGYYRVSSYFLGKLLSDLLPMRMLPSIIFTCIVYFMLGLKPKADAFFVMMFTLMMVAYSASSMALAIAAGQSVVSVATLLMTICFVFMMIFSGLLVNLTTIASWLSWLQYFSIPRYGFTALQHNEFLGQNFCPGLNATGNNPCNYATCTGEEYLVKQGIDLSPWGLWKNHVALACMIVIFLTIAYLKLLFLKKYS", "experiment": "Drug transporter inhibition panel", "format": "in vitro ADME", "settings": "1 and 10 μM", "source_text": "as §4"}, "OATP1B3": {"molecular_target": "T8, OATP1B3 (Homo sapiens, UniProt Q9NPD5)", "T8 construct": "Eurofins", "experiment": "Drug transporter inhibition panel", "format": "in vitro ADME", "source_text": "as §4"}, "[7]": {"experiment": "In vitro cytotoxicity assay", "format": "cell-based", "settings": "human, MRC-5 human fetal lung fibroblasts"}, "AR": {"system": "AR", "experiment": "In vitro pharmacology panel (Eurofins)", "format": "binding, human", "settings": "10 µM", "source_text": "as §4"}, "L. infantum": {"system": "L. infantum", "experiment": "PK/PD analysis of liver burden versus cumulative unbound AUC", "format": "in vivo, hamsters", "settings": "Hamster – L. infantum; estimated using the fitted parameters", "source_text": "To determine the correlation between the pharmacokinetic (PK) and pharmacodynamic (PD) data, repeat dose profiles in mice and hamsters following single and twice daily dosing were simulated using the fitted parameters.\nOther parameters were less well correlated to efficacy, presumably given that none reflect the cumulative exposure profile with an extended treatment regimen. […] Results for mice infected with L. donovani were similar to those for L. infantum (Table S15)."}}}
{"smiles": "Cc1[nH]c2nc(N)nc(C)c2c1-c1ccc(C#N)c2c1OCO2", "note": "[DNDI-6174]", "values": [{"measurement": "CC50", "setting": "[1]", "value": "> 37", "unit": "µM"}, {"measurement": "pKa (measured)", "setting": "[2]", "value": 5.58}, {"measurement": "Log D7.4 (measured)", "setting": "[2]; octanol-pH 7.4 buffer", "value": 2.57}, {"measurement": "logD", "setting": "[2]; octanol/pH 7.4 buffer, pH 7.4, octanol-pH 7.4 buffer, read-out: Log D7.4 (measured)", "value": 2.6}, {"measurement": "pKa", "setting": "[2]; read-out: pKa (measured)", "value": 5.6}, {"measurement": "IC50", "setting": "NaV1.5", "value": "> 50", "unit": "µM"}, {"measurement": "Hepatocyte predicted in vivo CLplasma", "setting": "[3]; Human", "value": 0.31, "unit": "mL/min/kg"}, {"measurement": "hepatocyte CLint at 0.5 µM", "setting": "[3]; human, cryopreserved hepatocytes", "value": "1.1 ± 0.27", "unit": "µL/min/1e6 cells"}, {"measurement": "XC50", "setting": "THP-1", "value": "> 50", "unit": "µM"}, {"measurement": "pXC50", "setting": "THP-1", "value": "< 4.3"}, {"measurement": "inhibition at 200 µM", "setting": "[4]", "value": "< 20", "unit": "%"}, {"measurement": "CLint in absence or presence of CYP isoform inhibitors, in words", "setting": "[5]", "value": "no significant difference in the CLint values in the absence or presence of inhibitors"}, {"measurement": "Hepatocyte predicted in vivo CLplasma", "setting": "[6]; Dog", "value": 0.30, "unit": "mL/min/kg"}, {"measurement": "hepatocyte CLint at 0.5 µM", "setting": "[6]; dog, cryopreserved hepatocytes", "value": "1 ± 0.27", "unit": "µL/min/1e6 cells"}, {"measurement": "activity remaining", "setting": "OAT3", "value": "> 50", "unit": "%"}, {"measurement": "activity remaining", "setting": "OCT2", "value": "> 50", "unit": "%"}, {"measurement": "activity remaining", "setting": "BSEP", "value": "> 50", "unit": "%"}, {"measurement": "IC50", "setting": "OATP1B1", "value": 22, "unit": "µM"}, {"measurement": "IC50", "setting": "MATE2-K", "value": 0.88, "unit": "µM"}, {"measurement": "activity remaining", "setting": "OCT1", "value": "> 50", "unit": "%"}, {"measurement": "activity remaining", "setting": "OAT1", "value": "> 50", "unit": "%"}, {"measurement": "activity remaining", "setting": "BCRP", "value": "> 50", "unit": "%"}, {"measurement": "IC50", "setting": "OATP1B3", "value": 16, "unit": "µM"}, {"measurement": "CC50", "setting": "[7]", "value": "> 64", "unit": "µM"}, {"measurement": "activity (% of DMSO control)", "setting": "AR", "value": 99.1, "unit": "%"}, {"measurement": "unbound ED95", "setting": "L. infantum", "value": 3.6}]}
